The test system of one assay is DLD-1 BRCA2−/− cells. Nature of the assay: Growth delay assay. The settings on record: pH 7.4, BRCA (−/−) DLD-1, 96 h. The format is cell-based, Human. The procedure:
Cells were plated in 96 well black walled-clear bottom plates (Griener), DLD-1 WT cells at 2500 cells per well, DLD-1 BRCA2−/− at 5000 cells per well, in growth media containing 10% FBS. Cells were allowed to adhere at room temperature for 60 minutes before returning to a 37 C, 5% CO2 incubator. After 24 hours, media was removed and replaced with fresh growth media containing various drug concentrations. Each drug concentration was added in triplicate. Non-drug treated controls contained growth media only. Cells were returned to the incubator. Ninety-six hours after addition of drug, cells were fixed with 4% paraformaldehyde for 20 minutes and stained with Hoechst at 1 ug/mL. The plates were imaged on a Cytation 5 auto imager (BioTek) and cells were counted using CellProfiler (http://cellprofiler.org). The percent cell growth delay was calculated and data plotted using GraphPad Prism.

The target of a further assay is PARP (Homo sapiens, UniProt P09874). Nature of the assay: Enzymatic Assay 2: HT Universal Chemiluminescent PARP Assay of cleaved compounds.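 Note: PARP reaction with activated DNA run 1 h at room temperature, product detected via streptavidin-HRP and luminescence endpoint reading on a plate reader.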 The note with it: read-out: IC50 Enzymatic Assay 2; Examples cleaved per Example A (crude cleavage solution); R^8H starting materials as such.
Chain of PARP (P09874 whole entry): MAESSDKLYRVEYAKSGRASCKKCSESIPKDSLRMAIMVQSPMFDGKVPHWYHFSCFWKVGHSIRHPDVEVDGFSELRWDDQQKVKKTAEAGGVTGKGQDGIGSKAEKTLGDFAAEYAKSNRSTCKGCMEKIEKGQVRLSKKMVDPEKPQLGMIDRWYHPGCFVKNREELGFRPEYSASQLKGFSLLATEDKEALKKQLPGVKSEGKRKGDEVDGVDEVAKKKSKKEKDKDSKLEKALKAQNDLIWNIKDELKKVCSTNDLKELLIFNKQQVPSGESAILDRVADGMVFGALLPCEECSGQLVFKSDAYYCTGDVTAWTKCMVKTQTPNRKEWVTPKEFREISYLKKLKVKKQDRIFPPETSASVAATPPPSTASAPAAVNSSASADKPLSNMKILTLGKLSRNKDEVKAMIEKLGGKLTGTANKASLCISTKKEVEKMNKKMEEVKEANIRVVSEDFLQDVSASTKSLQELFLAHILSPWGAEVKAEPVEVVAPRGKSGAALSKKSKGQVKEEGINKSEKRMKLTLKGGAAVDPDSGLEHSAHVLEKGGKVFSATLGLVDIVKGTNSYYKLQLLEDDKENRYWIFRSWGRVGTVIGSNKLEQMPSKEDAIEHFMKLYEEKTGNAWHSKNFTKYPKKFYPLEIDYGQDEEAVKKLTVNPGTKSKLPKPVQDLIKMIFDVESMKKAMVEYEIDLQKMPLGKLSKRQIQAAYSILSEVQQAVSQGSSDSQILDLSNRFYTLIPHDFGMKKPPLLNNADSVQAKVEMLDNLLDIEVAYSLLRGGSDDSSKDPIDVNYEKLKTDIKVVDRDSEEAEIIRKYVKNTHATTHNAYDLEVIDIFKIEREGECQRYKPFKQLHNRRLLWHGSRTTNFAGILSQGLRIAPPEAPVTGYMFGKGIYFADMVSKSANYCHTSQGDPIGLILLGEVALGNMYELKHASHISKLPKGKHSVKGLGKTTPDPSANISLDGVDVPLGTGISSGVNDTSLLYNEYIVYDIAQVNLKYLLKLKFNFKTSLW

Residues, ends and D or L forms follow the SMILES beside them. *: point of attachment. X7 = C[C@@H](COC(=O)NCN1c2cc(F)cc3c(=O)[nH]nc(c23)[C@H](c2ncnn2C)[C@H]1c1ccc(F)cc1)S*; X8 = Cn1ncnc1[C@H]1c2n[nH]c(=O)c3cc(F)cc(c23)N(CNC(=O)OCC2(S*)CCC2)[C@@H]1c1ccc(F)cc1; X4 = C[C@H](COC(=O)NCN1c2cc(F)cc3c(=O)[nH]nc(c23)[C@H](c2ncnn2C)[C@H]1c1ccc(F)cc1)S*; X1 = Cn1ncnc1[C@H]1c2n[nH]c(=O)c3cc(F)cc(c23)N(CNC(=O)OCCS*)[C@@H]1c1ccc(F)cc1

Description for PARP: An equal volume of 1×PARP cocktail containing activated DNA was added to each well and the reaction was incubated for one hour at room temperature. The wells were washed twice with 1×PBS+0.1% Triton X-100 and twice with PBS. 50 ul/well of diluted streptavidin-HRP was added and the wells were incubated for one hour at room temperature. The wells were washed twice with 1×PBS+0.1% Triton X-100 and washed twice with PBS. The liquid was 5 removed, 100 ul/well 1:1 PeroxyGlow A/PeroxyGlow B was added and the chemiluminescent readings were measured on a BioTek Cytation 5 plate reader using the luminescence fiber endpoint.

Turning to `CC[C@H](C)[C@H](NC(=O)[C@@H]1CCCN1C(=O)[C@H](CC(N)=O)NC(=O)[C@H](CCC(N)=O)NC(=O)[C@H](CCC(=O)O)NC(=O)[C@H](C)N)C(=O)N[C@@H](Cc1ccc(O)cc1)C(=O)N[C@@H](Cc1c[nH]c2ccccc12)C(=O)N[C@@H](C)C(=O)N[C@@H](CCCNC(=N)N)C(=O)N[C@@H](Cc1ccc(O)cc1)C(=O)N[C@@H](C)C(=O)N[C@@H](CC(=O)O)C(=O)N[C@@H](Cc1c[nH]c2ccccc12)C(=O)N[C@@H](CC(C)C)C(=O)N[C@@H](Cc1ccccc1)C(=O)N[C@H](C(=O)N[C@H](C(=O)N1CCC[C@H]1C(=O)N[C@@H](CC(C)C)C(=O)N[C@@H](CC(C)C)C(=O)N[C@@H](CC(C)C)C(=O)N[C@@H](CC(C)C)C(=O)N[C@@H](CC(=O)O)C(=O)N[C@@H](CC(C)C)C(=O)N[C@@H](C)C(=O)N[C@@H](CC(C)C)C(=O)N[C@@H](CC(C)C)C(=O)N[C@H](C(=O)N[C@@H](CC(=O)O)C(=O)N[C@@H](C)C(=O)N[C@@H](CC(=O)O)C(=O)N[C@@H](CCC(=O)O)C(=O)N[C@@H](CSSCCOC(=O)NCN1c2cc(F)cc3c(=O)[nH]nc(c23)[C@H](c2ncnn2C)[C@H]1c1ccc(F)cc1)C(=O)NCC(=O)O)C(C)C)[C@@H](C)O)[C@@H](C)O` [Example 12] (H-AEQNPIYWARYADWLFTTPLLLLDLALLVDADEC(X1)G-OH; N-terminus and C-terminus assumed), the IC50 (commonly the concentration needed to halve the response being measured) in the assay on DLD-1 BRCA2−/− cells was 162 nM; on PARP, 0.00047 µM.
Taken in the same sequence, the figures for `CC[C@H](C)[C@H](NC(=O)[C@@H]1CCCN1C(=O)[C@H](CC(N)=O)NC(=O)[C@H](CCC(N)=O)NC(=O)[C@H](CCC(=O)O)NC(=O)[C@H](C)N)C(=O)N[C@@H](Cc1ccc(O)cc1)C(=O)N[C@@H](Cc1c[nH]c2ccccc12)C(=O)N[C@@H](C)C(=O)N[C@@H](CCCNC(=N)N)C(=O)N[C@@H](Cc1ccc(O)cc1)C(=O)N[C@@H](C)C(=O)N[C@@H](CC(=O)O)C(=O)N[C@@H](Cc1c[nH]c2ccccc12)C(=O)N[C@@H](CC(C)C)C(=O)N[C@@H](Cc1ccccc1)C(=O)N[C@H](C(=O)N[C@H](C(=O)N1CCC[C@H]1C(=O)N[C@@H](CC(C)C)C(=O)N[C@@H](CC(C)C)C(=O)N[C@@H](CC(C)C)C(=O)N[C@@H](CC(C)C)C(=O)N[C@@H](CC(=O)O)C(=O)N[C@@H](CC(C)C)C(=O)N[C@@H](C)C(=O)N[C@@H](CC(C)C)C(=O)N[C@@H](CC(C)C)C(=O)N[C@H](C(=O)N[C@@H](CC(=O)O)C(=O)N[C@@H](C)C(=O)N[C@@H](CC(=O)O)C(=O)N[C@@H](CCC(=O)O)C(=O)N[C@@H](CSS[C@@H](C)COC(=O)NCN1c2cc(F)cc3c(=O)[nH]nc(c23)[C@H](c2ncnn2C)[C@H]1c1ccc(F)cc1)C(=O)NCC(=O)O)C(C)C)[C@@H](C)O)[C@@H](C)O` [Example 13] (H-AEQNPIYWARYADWLFTTPLLLLDLALLVDADEC(X7)G-OH; N-terminus and C-terminus assumed) were 51 nM and 0.001 µM.
The corresponding values for `CC[C@H](C)[C@H](NC(=O)[C@@H]1CCCN1C(=O)[C@H](CC(N)=O)NC(=O)[C@H](CCC(N)=O)NC(=O)[C@H](CCC(=O)O)NC(=O)[C@H](C)N)C(=O)N[C@@H](Cc1ccc(O)cc1)C(=O)N[C@@H](Cc1c[nH]c2ccccc12)C(=O)N[C@@H](C)C(=O)N[C@@H](CCCNC(=N)N)C(=O)N[C@@H](Cc1ccc(O)cc1)C(=O)N[C@@H](C)C(=O)N[C@@H](CC(=O)O)C(=O)N[C@@H](Cc1c[nH]c2ccccc12)C(=O)N[C@@H](CC(C)C)C(=O)N[C@@H](Cc1ccccc1)C(=O)N[C@H](C(=O)N[C@H](C(=O)N1CCC[C@H]1C(=O)N[C@@H](CC(C)C)C(=O)N[C@@H](CC(C)C)C(=O)N[C@@H](CC(C)C)C(=O)N[C@@H](CC(C)C)C(=O)N[C@@H](CC(=O)O)C(=O)N[C@@H](CC(C)C)C(=O)N[C@@H](C)C(=O)N[C@@H](CC(C)C)C(=O)N[C@@H](CC(C)C)C(=O)N[C@H](C(=O)N[C@@H](CC(=O)O)C(=O)N[C@@H](C)C(=O)N[C@@H](CC(=O)O)C(=O)N[C@@H](CCC(=O)O)C(=O)N[C@@H](CSS[C@H](C)COC(=O)NCN1c2cc(F)cc3c(=O)[nH]nc(c23)[C@H](c2ncnn2C)[C@H]1c1ccc(F)cc1)C(=O)NCC(=O)O)C(C)C)[C@@H](C)O)[C@@H](C)O` [Example 14] (H-AEQNPIYWARYADWLFTTPLLLLDLALLVDADEC(X4)G-OH; N-terminus and C-terminus assumed) are 72 nM and 0.0005 µM.
The corresponding values for `CC(C)C[C@H](NC(=O)[C@H](Cc1ccc(O)cc1)NC(=O)[C@H](C)NC(=O)[C@H](CCCNC(=N)N)NC(=O)[C@H](Cc1c[nH]c2ccccc12)NC(=O)[C@@H]1CCCN1C(=O)[C@H](CC(N)=O)NC(=O)[C@H](CCC(N)=O)NC(=O)[C@H](CC(=O)O)NC(=O)[C@H](CC(=O)O)NC(=O)[C@H](C)N)C(=O)N[C@@H](CC(=O)O)C(=O)N[C@@H](CC(C)C)C(=O)N[C@@H](CC(C)C)C(=O)N[C@@H](Cc1ccccc1)C(=O)N1CCC[C@H]1C(=O)N[C@H](C(=O)N[C@@H](CC(=O)O)C(=O)N[C@H](C(=O)N[C@@H](CC(C)C)C(=O)N[C@@H](CC(C)C)C(=O)N[C@@H](CC(C)C)C(=O)N[C@@H](CC(=O)O)C(=O)N[C@@H](CC(C)C)C(=O)N[C@@H](CC(C)C)C(=O)N[C@@H](Cc1c[nH]c2ccccc12)C(=O)N[C@@H](CSSCCOC(=O)NCN1c2cc(F)cc3c(=O)[nH]nc(c23)[C@H](c2ncnn2C)[C@H]1c1ccc(F)cc1)C(=O)NCC(=O)O)[C@@H](C)O)[C@@H](C)O` [Example 16] are 84 nM and 0.00061 µM.
For `CC(C)C[C@H](NC(=O)[C@H](Cc1ccc(O)cc1)NC(=O)[C@H](C)NC(=O)[C@H](CCCNC(=N)N)NC(=O)[C@H](Cc1c[nH]c2ccccc12)NC(=O)[C@@H]1CCCN1C(=O)[C@H](CC(N)=O)NC(=O)[C@H](CCC(N)=O)NC(=O)[C@H](CC(=O)O)NC(=O)[C@H](CC(=O)O)NC(=O)[C@H](C)N)C(=O)N[C@@H](CC(=O)O)C(=O)N[C@@H](CC(C)C)C(=O)N[C@@H](CC(C)C)C(=O)N[C@@H](Cc1ccccc1)C(=O)N1CCC[C@H]1C(=O)N[C@H](C(=O)N[C@@H](CC(=O)O)C(=O)N[C@H](C(=O)N[C@@H](CC(C)C)C(=O)N[C@@H](CC(C)C)C(=O)N[C@@H](CC(C)C)C(=O)N[C@@H](CC(=O)O)C(=O)N[C@@H](CC(C)C)C(=O)N[C@@H](CC(C)C)C(=O)N[C@@H](Cc1c[nH]c2ccccc12)C(=O)N[C@@H](CC(=O)O)C(=O)N[C@@H](C)C(=O)N[C@@H](CC(=O)O)C(=O)N[C@@H](CCC(=O)O)C(=O)N[C@@H](CSSCCOC(=O)NCN1c2cc(F)cc3c(=O)[nH]nc(c23)[C@H](c2ncnn2C)[C@H]1c1ccc(F)cc1)C(=O)NCC(=O)O)[C@@H](C)O)[C@@H](C)O` [Example 17], the IC50 in the assay with DLD-1 BRCA2−/− cells was determined as 50 nM; on PARP, 0.00041 µM.
Taken in the same sequence, the figures for `CC[C@H](C)[C@H](NC(=O)[C@@H]1CCCN1C(=O)[C@H](CC(N)=O)NC(=O)[C@H](CCC(N)=O)NC(=O)[C@H](CCC(=O)O)NC(=O)[C@H](C)N)C(=O)N[C@@H](Cc1ccc(O)cc1)C(=O)N[C@@H](Cc1c[nH]c2ccccc12)C(=O)N[C@@H](C)C(=O)N[C@@H](CCCNC(=N)N)C(=O)N[C@@H](Cc1ccc(O)cc1)C(=O)N[C@@H](C)C(=O)N[C@@H](CC(=O)O)C(=O)N[C@@H](Cc1c[nH]c2ccccc12)C(=O)N[C@@H](CC(C)C)C(=O)N[C@@H](Cc1ccccc1)C(=O)N[C@H](C(=O)N[C@H](C(=O)N1CCC[C@H]1C(=O)N[C@@H](CC(C)C)C(=O)N[C@@H](CC(C)C)C(=O)N[C@@H](CC(C)C)C(=O)N[C@@H](CC(C)C)C(=O)N[C@@H](CC(=O)O)C(=O)N[C@@H](CC(C)C)C(=O)N[C@@H](C)C(=O)N[C@@H](CC(C)C)C(=O)N[C@@H](CC(C)C)C(=O)N[C@H](C(=O)N[C@@H](CC(=O)O)C(=O)N[C@@H](C)C(=O)N[C@@H](CC(=O)O)C(=O)N[C@@H](CCC(=O)O)C(=O)N[C@@H](CSSC1(COC(=O)NCN2c3cc(F)cc4c(=O)[nH]nc(c34)[C@H](c3ncnn3C)[C@H]2c2ccc(F)cc2)CCC1)C(=O)NCC(=O)O)C(C)C)[C@@H](C)O)[C@@H](C)O` [Example 39] (H-AEQNPIYWARYADWLFTTPLLLLDLALLVDADEC(X8)G-OH; N-terminus and C-terminus assumed) were 104 nM and 0.003 µM.
The corresponding values for `CC(C)C[C@H](NC(=O)[C@H](Cc1ccc(O)cc1)NC(=O)[C@H](C)NC(=O)[C@H](CCCNC(=N)N)NC(=O)[C@H](Cc1c[nH]c2ccccc12)NC(=O)[C@@H]1CCCN1C(=O)[C@H](CC(N)=O)NC(=O)[C@H](CCC(N)=O)NC(=O)[C@H](CC(=O)O)NC(=O)[C@H](CC(=O)O)NC(=O)[C@H](C)N)C(=O)N[C@@H](CC(=O)O)C(=O)N[C@@H](CC(C)C)C(=O)N[C@@H](CC(C)C)C(=O)N[C@@H](Cc1ccccc1)C(=O)N1CCC[C@H]1C(=O)N[C@H](C(=O)N[C@@H](CC(=O)O)C(=O)N[C@H](C(=O)N[C@@H](CC(C)C)C(=O)N[C@@H](CC(C)C)C(=O)N[C@@H](CC(C)C)C(=O)N[C@@H](CC(=O)O)C(=O)N[C@@H](CC(C)C)C(=O)N[C@@H](CC(C)C)C(=O)N[C@@H](Cc1c[nH]c2ccccc12)C(=O)N[C@@H](CSS[C@H](C)COC(=O)NCN1c2cc(F)cc3c(=O)[nH]nc(c23)[C@H](c2ncnn2C)[C@H]1c1ccc(F)cc1)C(=O)NCC(=O)O)[C@@H](C)O)[C@@H](C)O` [Example 40] are 64 nM and 0.0011 µM.

The values above are taken from US12427157B2, “Methods for treatment of diseases involving acidic or hypoxic diseased tissues” (Cybrexa 1, Inc., priority 2018, dated 2025).
